Experiment [1] relates to human MCF-7 breast cancer cells. Put plainly: growth of hormone-dependent human MCF-7 breast cancer cells, cell count. In kind it is cell-based. Particulars: Homo sapiens, read-out: Cell Count (% T/C). From the text:
(§1) The test protocol for the research is fully described in Eur.J. Cancer Clin. Oncol.

For a further experiment, the target named is T1, estrogen receptor (Bos taurus, UniProt P49884).
T1 construct: estrogen receptor from calf uterus; from tissue; host or cells: calf uterus
T1 sequence (P49884 1-596): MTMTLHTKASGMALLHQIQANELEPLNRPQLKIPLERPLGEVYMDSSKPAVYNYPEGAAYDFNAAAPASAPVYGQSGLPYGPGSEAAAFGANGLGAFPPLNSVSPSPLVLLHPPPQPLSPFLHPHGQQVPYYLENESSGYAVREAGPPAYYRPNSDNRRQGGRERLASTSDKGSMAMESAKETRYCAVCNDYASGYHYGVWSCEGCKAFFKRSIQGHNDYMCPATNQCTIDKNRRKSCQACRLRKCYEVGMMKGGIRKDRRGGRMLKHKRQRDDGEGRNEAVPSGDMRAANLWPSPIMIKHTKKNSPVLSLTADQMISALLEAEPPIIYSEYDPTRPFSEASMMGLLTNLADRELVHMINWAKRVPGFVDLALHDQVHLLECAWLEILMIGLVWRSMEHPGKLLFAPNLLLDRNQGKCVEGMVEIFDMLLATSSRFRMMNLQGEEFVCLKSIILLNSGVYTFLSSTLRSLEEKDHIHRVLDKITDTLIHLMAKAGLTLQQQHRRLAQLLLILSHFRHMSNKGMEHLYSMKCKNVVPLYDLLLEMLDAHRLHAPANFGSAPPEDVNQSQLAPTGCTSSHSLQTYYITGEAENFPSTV
Kind of experiment: relative binding affinity (RBA) for the estrogen receptor from calf uterus, displacement of 3H-17β estradiol. Particulars: calf uterus; relative to 17 beta estradiol = 100. A general note: Displacement assays read how much labelled ligand stays bound in the presence of the test substance.

The subject of experiment [2] is human MCF-7 breast cancer cells. Put plainly: [3H] thymidine incorporation in hormone-dependent human MCF-7 breast cancer cells. The format is cell-based. Particulars: Homo sapiens, read-out: [3H] Thymidine incorporation (% T/C).
Excerpt: as §1

Experiment [3] has as its system mouse uterus. Kind of experiment: Uterotrophic test on infantile mouse (estrogen activity). The format is in vivo. Details: unit not given here. From the text:
(§2) This test is fully described in Cancer Treatment Reviews 1984, 11, 147, and J.Med.Chem., 1984, 27, 1439.

In experiment [4] the test system is mouse uterus. Kind of experiment: Antiuterotrophic test on infantile mouse (anti-estrogen activity). Also noted: Antiuterotrophic Test Rel. uterus wgt / Antiuterotrophic Test Action (rel. uterus wgt): unit not given here. The format is in vivo.
Excerpt: as §2

Like-named read-outs stand apart in the source and are kept apart here.

Two compounds from US5023254A, “Aminoalkylindoles, their production, and pharmaceutical preparations based thereon” (Schering Aktiengesellschaft, priority 1988, dated 1991) can be followed below.

Excerpt for estrogen receptor: *Relative binding affinities for the estrogen receptor from calf uterus,

On to `Cc1c(-c2ccc(O)cc2)n(CCCCN2CCCC2)c2ccc(O)cc12` [Compound 1, 5-Hydroxy-2-(4-hydroxyphenyl)-3-methyl-1-[4-pyrrolidino-butyl]-indole], for which the activity at 1 µM stood at 94% in experiment [1] (MCF7, MCF-7, 1 × 10^-6 M) and 85% in experiment [2] (MCF7, MCF-7, 1 × 10^-6 M). The activity at 0.1 µM amounted to 106% in experiment [1] (MCF7, MCF-7, 1 × 10^-7 M) and 67% in experiment [2] (MCF7, MCF-7, 1 × 10^-7 M). Besides, the activity at 5 µM was found to be 62% in experiment [1] (MCF7, MCF-7, 5 × 10^-6 M) and 74% in experiment [2] (MCF7, MCF-7, 5 × 10^-6 M). The activity at 0.5 µM in experiment [1] (MCF7, MCF-7, 5 × 10^-7 M) came out at 84%; in experiment [2] (MCF7, MCF-7, 5 × 10^-7 M) it was 76%. At estrogen receptor, the “RBA (relative binding affinity for the estrogen receptor)” value stood at 3.6. The “Uterotrophic Test Rel. uterus wgt” value is reported as 7.6 ± 2.8 with mouse uterus [3] (dose 1 ug), 8.0 ± 3.1 in the experiment with mouse uterus [3] (dose 5 ug), 6.4 ± 1.1 in the experiment on mouse uterus [3] (dose 25 ug) and 6.4 ± 1.3 in the experiment on mouse uterus [3] (dose 125 ug). Further, in the experiment on mouse uterus [4] (Mus musculus, read-out: Antiuterotrophic Test Inhib. (%)), the inhibition in vivo at 0.125 mg turned out to be 53%. For the same compound, the “Antiuterotrophic Test Rel. uterus wgt” value in the experiment on mouse uterus [4] (infantile mouse, dose 1 ug) is given as 43.7 ± 8.2; with mouse uterus [4] (infantile mouse, dose 5 ug), 47.6 ± 10.5; in the experiment with mouse uterus [4] (infantile mouse, dose 25 ug), 16.2 ± 4.6; with mouse uterus [4] (infantile mouse, dose 125 ug), 25.5 ± 7.9. In addition, the inhibition in vivo at 0.001 mg in the experiment with mouse uterus [4] (infantile mouse, dose 1 ug, read-out: Antiuterotrophic Test Inhib. (%)) was 5%. Also, the inhibition in vivo at 0.025 mg with mouse uterus [4] (infantile mouse, dose 25 ug (per animal), read-out: Antiuterotrophic Test Inhib. (%)) was found to be 78%.
As to `Cc1c(-c2ccc(O)cc2)n(CCCCCCN2CCCC2)c2ccc(O)cc12` [Compound 6, 5-Hydroxy-2-(4-hydroxyphenyl)-3-methyl-1-[6-pyrrolidino-hexyl]-indole], the activity at 0.1 µM in experiment [1] (MCF7, […]) worked out at 65%; in experiment [2] (MCF7, […]) it was 32%. In addition, the activity at 0.5 µM came to 49% in experiment [1] (MCF7, […]) and 32% in experiment [2] (MCF7, […]). Also, the activity at 1 µM in experiment [1] (MCF7, […]) amounted to 24%; in experiment [2] (MCF7, […]), 22%. The activity at 5 µM in experiment [1] (MCF7, […]) amounted to 12%; in experiment [2] (MCF7, […]), 3%. Also, the “Uterotrophic Test Rel. uterus wgt” value in the experiment on mouse uterus [3] (dose 5 ug) stood at 9.0 ± 1.8; in the experiment on mouse uterus [3] (dose 50 ug), 8.2 ± 1.8; with mouse uterus [3] (dose 250 ug), 12.7 ± 2.7. For the same compound, in the experiment with mouse uterus [4] (Mus musculus, read-out: Antiuterotrophic Test Inhib. (%), infantile mouse, dose 1 ug), the inhibition in vivo at 0.001 mg came out at 20%. In addition, the “Antiuterotrophic Test Rel. uterus wgt” value is 48.3 ± 7.2 with mouse uterus [4] (infantile mouse, dose 1 ug); 20.1 ± 7.3 with mouse uterus [4] (infantile mouse, dose 5 ug); 12.6 ± 1.9 in the experiment with mouse uterus [4] (infantile mouse, dose 25 ug); 8.9 ± 1.6 in the experiment with mouse uterus [4] (infantile mouse, dose 125 ug).
